We go through nine compounds from patent publication US10638750B2, “Compositions containing a hollow glucan particle or a cell wall particle encapsulating a terpene component, methods of making and using them” (Eden Research PLC, priority 2004, dated 2020).

For data set [1], the system named is S. aureus. The experiment in a line: MIC of terpene emulsions and fresh or freeze-dried Baker's YP and SAF Mannan encapsulated terpenes. It counts as cell-based. To be noted: for MIC: Staphylococcus aureus. Here is the method: The results of a protocol performed to compare the MIC of fresh versus freeze dried hollow glucan particle encapsulated terpene formulations are shown below in Table 13. A simple terpene emulsion was also tested and the results are shown for comparison.

Data set [2] can be described thus: Terpene stability by formation of a yellow colored oxidation product of citral. It counts as physicochemical.
Data set [3] in a line: Citral solution and stable suspension limits. It is filed as physicochemical.
The subject of data set [4] is E. coli. The settings on record: cited from earlier work.
Data set [5] has as its system Saccharomyces cerevisiae. The data set can be described thus: Saccharomyces cerevisiae MIC assays comparing free terpene emulsions with yeast-encapsulated terpenes. It is filed as cell-based. The settings on record: free terpene emulsion; for Cidal MIC Free terpene emulsions: re-incubation in fresh medium. Here is the method:
One column was designated as a cell-only control and no terpene was added to these wells. Serial 2-fold dilutions were performed by transferring 100 μL from one row to the next a total of 7 times. […] Microtitre plates were incubated statically overnight at 30° C. […] Growth inhibition was visually confirmed by microscopy. For the free terpene emulsions, once the MIC had been determined for each formulation, the microtitre plates were centrifuged and the spent medium was removed from the growth-inhibited wells. The cells were resuspended in fresh medium (100 μL) and the plates were re-incubated overnight at 30° C. Assessment of growth inhibition was performed as before.

In data set [6] the test system is H. pylori. To be noted: in vitro; cited from earlier work.
Setting [7] is: encapsulated in Baker's YP, freeze dried, read-out: MIC μg/ml terpene, Bakers Freeze Dried.
The mark [8] stands for this setting: encapsulated in Baker's YP, fresh, read-out: MIC μg/ml terpene, Bakers Fresh.
[9] abbreviates: encapsulated in SAF Mannan, freeze dried, read-out: MIC μg/ml terpene, SAF Mannan Freeze Dried.
Where [10] appears, read: encapsulated in SAF Mannan, fresh, read-out: MIC μg/ml terpene, SAF Mannan Fresh.
Setting [11] is: terpene emulsion, not encapsulated, read-out: MIC μg/ml terpene, Emulsion.

Read-outs that look alike come from different tables or passages of the source.

As for `CC(C)=CCCC(C)=CC=O` [Citral, 3,7-dimethyl-2,6-octadien-1-al], the MIC in data set [1] (setting [7]) was 0.05 µg/mL; in data set [1] (setting [8]) it was 0.01 µg/mL; in data set [1] (setting [9]) it was more than 0.03 µg/mL; in data set [1] (setting [10]) it was 0.01 µg/mL; in data set [1] (setting [11]), 0.94 µg/mL. The “yellow color (citral oxidation product) over time” value in data set [2] (aqueous emulsion) and in data set [2] (encapsulated in Bakers YP) was “turned a progressively increasing yellow color over time” throughout. The “citral stability (yellow color over time)” value in data set [2] (encapsulated in SAF Mannan) is given as “increased citral stability”. Moreover, the “citral stability (absence of yellow colour)” value in data set [2] (loaded in SAF Mannan, after 24 hours at 37° C.) is recorded as “remains stable”. Besides, the “concentration up to which a solution can be made” value in data set [3] is “about 500 ppm”. Also, the “concentration up to which a stable suspension can be formed” value in data set [3] was “about 2500 ppm”. The “concentration in growth media that reduced the concentration of E. coli” value in data set [4] is given as “more than 0.01%”. In data set [4], the “concentration with bactericidal effect” value is given as 0.08%.
For the compound `C=CCc1ccc(O)c(OC)c1` [Eugenol, eugenol], the MIC came out at 0.05 µg/mL in data set [1] (setting [7]); 0.03 µg/mL in data set [1] (setting [8]); 0.05 µg/mL in data set [1] (setting [9]); 0.01 µg/mL in data set [1] (setting [10]); 0.12 µg/mL in data set [1] (setting [11]).
With L-carvone, the “MIC μg/ml terpene, Bakers Freeze Dried” value in data set [1] (encapsulated in Baker's YP, freeze dried) is more than 0.04 µg/mL. In addition, the “MIC μg/ml terpene, Bakers Fresh” value in data set [1] (encapsulated in Baker's YP, fresh) was 0.1 µg/mL. For the same compound, the “MIC μg/ml terpene, SAF Mannan Freeze Dried” value in data set [1] (encapsulated in SAF Mannan, freeze dried) is more than 0.02 µg/mL. In addition, the “MIC μg/ml terpene, SAF Mannan Fresh” value in data set [1] (encapsulated in SAF Mannan, fresh) was found to be 0.01 µg/mL. In addition, the “MIC μg/ml terpene, Emulsion” value in data set [1] (terpene emulsion, not encapsulated) stood at 3.75 µg/mL.
`CC(C)=CCC/C(C)=C/CO` [G (1)]: in data set [5], the “MIC Free terpene emulsions” value is on record as 250 ppm and the “Cidal MIC Free terpene emulsions” value is given as 250 ppm.
With `C=CCc1ccc(O)c(OC)c1` [E (2)], in data set [5], the “MIC Free terpene emulsions” value turned out to be 125 ppm and the “Cidal MIC Free terpene emulsions” value is on record as 250 ppm.
For `CC(C)=CCC/C(C)=C/CO` [Geraniol, geraniol], the MIC in data set [1] (setting [7]) was 0.06 µg/mL; in data set [1] (setting [8]) it was 0.03 µg/mL; in data set [1] (setting [9]), more than 0.03 µg/mL; in data set [1] (setting [10]), 0.02 µg/mL; in data set [1] (setting [11]), 0.47 µg/mL. Also, in data set [6], the “concentration that inhibited the growth of H. pylori” value is listed as 2 mg/L.
Turning to `Cc1ccc(C(C)C)c(O)c1` [T (3)], in data set [5], the “MIC Free terpene emulsions” value was 125 ppm and the “Cidal MIC Free terpene emulsions” value is given as 250 ppm.
`C=C(C)[C@@H]1CC=C(C)C(=O)C1` [L (5)]: in data set [5], the “MIC Free terpene emulsions” value is reported as 250 ppm and the “Cidal MIC Free terpene emulsions” value is reported as 500 ppm.
With `CC(C)=CCCC(C)=CC=O` (mixture of isomers) [C (4)], in data set [5], the “MIC Free terpene emulsions” value came out at 125 ppm and the “Cidal MIC Free terpene emulsions” value came out at 250 ppm.
